Test results published in paper PMC4076079, “Selective inhibitors of a PAF biosynthetic enzyme lysophosphatidylcholine acyltransferase 2” (Journal of Lipid Research, 2014).

Key:
Type in all cases: biochemical
mLPCAT2 [1] = target: T1, mLPCAT2 (Mus musculus, UniProt Q8BYI6); assay: acyltransferase activity assay, 16:0/20:4 alkyl-PC product; details: 20 μM compound; microsomal fractions of nonstimulated CHO-S-PAFR cells; n = 3, mean ± SEM
T1 construct: expressed in transfected cells; host or cells: CHO-S-PAFR cells, microsomal fraction, with or without mcPAF stimulation
T1 sequence (Q8BYI6 1-544): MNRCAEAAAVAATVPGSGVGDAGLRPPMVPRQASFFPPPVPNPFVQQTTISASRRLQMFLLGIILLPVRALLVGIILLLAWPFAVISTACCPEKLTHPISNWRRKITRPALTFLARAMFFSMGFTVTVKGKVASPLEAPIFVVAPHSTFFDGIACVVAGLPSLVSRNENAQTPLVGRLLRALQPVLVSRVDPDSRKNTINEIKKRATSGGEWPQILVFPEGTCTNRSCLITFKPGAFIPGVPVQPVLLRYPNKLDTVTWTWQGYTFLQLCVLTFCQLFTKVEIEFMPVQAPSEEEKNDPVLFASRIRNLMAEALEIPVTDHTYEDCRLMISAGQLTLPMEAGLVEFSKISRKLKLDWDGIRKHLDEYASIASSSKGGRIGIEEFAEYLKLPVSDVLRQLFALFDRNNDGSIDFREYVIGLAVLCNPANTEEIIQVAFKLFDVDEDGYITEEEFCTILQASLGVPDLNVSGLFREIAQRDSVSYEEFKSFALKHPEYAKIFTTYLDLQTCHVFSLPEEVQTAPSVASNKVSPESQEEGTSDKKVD
Experimental: (§1) Microsomal protein fractions (0.5 μg) supplemented with the indicated compound concentrations were added to the reaction mixture containing 100 mM Tris-HCl (pH 7.4), 1 μM CaCl2, 0.015% Tween-20, and two substrates. For acetyltransferase activity, the substrates were 1 mM acetyl-CoA and 5 μM d4-lyso-PAF; for the acyltransferase activity of LPCAT1 or LPCAT2, the substrates were, respectively, palmitoyl-CoA and d31-16:0 LPC or arachidonoyl-CoA and d4-lyso-PAF (all 5 μM). Each lysophospholipid contained fatty acid at the sn-1 position. After incubation at 37°C for 5 min, the reactions were stopped by adding 300 μl methanol containing 17:0 LPC or 14:0/14:0 PC as an internal standard. Deuterium-labeled products were analyzed by LC-MS/MS (Waters, Milford, MA and Thermo Scientific, Waltham, MA). […]
(§2) arachidonoyl-CoA, 5 µM; palmitoyl-CoA, 5 µM; d4-lyso-PAF, 5 µM; and d31-LPC, 5 µM. […]
(§3) deuterium-labeled products were measured by LC-MS/MS. […]
(§4) Step 7 screening: species-specific differences
(§5) To evaluate the effects on the activity of mouse or human LPCAT1 and LPCAT2, each microsomal fraction was obtained using CHO-S-PAFR cells with or without mcPAF (200 nM) stimulation for 5 min. Acetyltransferase and acyltransferase assays were performed with 20 µM of each compound. Percentage inhibition was calculated in each

hLPCAT1 = target: T2, hLPCAT1 (Homo sapiens, UniProt Q8NF37); assay: lyso-PAFAT (acetyltransferase) activity assay, PAF product by LC-MS/MS; details: for IC50: 0, 0.2, 0.6, 2, 6 and 20 μM of each compound in triplicate, LC-MS/MS, read-out: IC50, product PAF, enzyme hLPCAT1; for percentage inhibition, product PAF, hLPCAT1: 20 μM compound, microsomal fractions of nonstimulated CHO-S-PAFR cells, n = 3, mean ± SEM
T2 construct: expressed in transfected cells
T2 sequence (Q8NF37 1-534): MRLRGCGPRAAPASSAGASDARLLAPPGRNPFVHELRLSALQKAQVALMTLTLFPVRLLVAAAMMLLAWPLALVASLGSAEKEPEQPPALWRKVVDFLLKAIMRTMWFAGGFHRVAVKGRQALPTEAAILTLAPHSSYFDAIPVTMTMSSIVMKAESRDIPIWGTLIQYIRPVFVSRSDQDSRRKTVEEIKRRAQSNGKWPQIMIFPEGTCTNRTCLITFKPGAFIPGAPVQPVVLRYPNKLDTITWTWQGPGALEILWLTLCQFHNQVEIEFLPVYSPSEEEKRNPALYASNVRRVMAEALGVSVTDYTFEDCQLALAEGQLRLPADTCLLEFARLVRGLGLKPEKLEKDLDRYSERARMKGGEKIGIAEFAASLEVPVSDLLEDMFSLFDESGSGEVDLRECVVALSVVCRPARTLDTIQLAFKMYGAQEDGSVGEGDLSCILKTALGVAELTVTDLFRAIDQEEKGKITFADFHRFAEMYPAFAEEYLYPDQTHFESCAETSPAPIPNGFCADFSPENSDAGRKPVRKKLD
Experimental: as §1
(§6) Steps 2 to 5 screening: 96-well plate assay
(§7) Acetyltransferase and acyltransferase assays were developed in 96-well plates. The microsomal hLPCAT2, obtained from mcPAF-stimulated CHO-S-PAFR cells was used in steps 1, 2, and 5. The microsomal hLPCAT1 obtained from unstimulated CHO-S cells was used in steps 3 to 5. Each well of the 96-well plates contained 30 µl of 15 µg/ml protein, 600 nl of 2 mM compound, 30 µl buffer C, and two substrates (Fig. 1B and C).
(§8) Substrate concentrations were as follows: acetyl-CoA, 250 or 1000 µM acetyl-CoA; […]
(§9) arachidonoyl-CoA, 5 µM; palmitoyl-CoA, 5 µM; d4-lyso-PAF, 5 µM; and d31-LPC, 5 µM.
(§10) For step 5, compound concentrations were 0, 0.167, 0.67, 2, 6.7, and 20 µM. The deuterium-labeled products were measured by LC-MS/MS. Percentage inhibition (steps 2 to 4) or IC50 (step 5) was used as the hit criterion. […]
as §4, §5

mLPCAT2 [2] = target: T1, mLPCAT2; assay: lyso-PAFAT (acetyltransferase) activity assay, PAF product; details: 20 μM compound; microsomal fractions of nonstimulated CHO-S-PAFR cells; n = 3, mean ± SEM
Experimental: as §1, §2, §3, §4, §5

hLPCAT2 = target: T3, hLPCAT2 (Homo sapiens, UniProt Q7L5N7); assay: acyltransferase activity assay, 16:0/20:4 alkyl-PC product by LC-MS/MS; details: for IC50: 0, 0.2, 0.6, 2, 6 and 20 μM of each compound in triplicate, LC-MS/MS, read-out: IC50, product Alkyl-PC (16:0/20:4 alkyl-PC), enzyme hLPCAT2; for percentage inhibition, product 16:0/20:4 Alkyl-PC, hLPCAT2: 20 μM compound, microsomal fractions of nonstimulated CHO-S-PAFR cells, n = 3, mean ± SEM
T3 construct: expressed in transfected cells; host or cells: CHO-S-PAFR cells (microsomal fraction), with or without mcPAF stimulation
T3 sequence (Q7L5N7 1-544): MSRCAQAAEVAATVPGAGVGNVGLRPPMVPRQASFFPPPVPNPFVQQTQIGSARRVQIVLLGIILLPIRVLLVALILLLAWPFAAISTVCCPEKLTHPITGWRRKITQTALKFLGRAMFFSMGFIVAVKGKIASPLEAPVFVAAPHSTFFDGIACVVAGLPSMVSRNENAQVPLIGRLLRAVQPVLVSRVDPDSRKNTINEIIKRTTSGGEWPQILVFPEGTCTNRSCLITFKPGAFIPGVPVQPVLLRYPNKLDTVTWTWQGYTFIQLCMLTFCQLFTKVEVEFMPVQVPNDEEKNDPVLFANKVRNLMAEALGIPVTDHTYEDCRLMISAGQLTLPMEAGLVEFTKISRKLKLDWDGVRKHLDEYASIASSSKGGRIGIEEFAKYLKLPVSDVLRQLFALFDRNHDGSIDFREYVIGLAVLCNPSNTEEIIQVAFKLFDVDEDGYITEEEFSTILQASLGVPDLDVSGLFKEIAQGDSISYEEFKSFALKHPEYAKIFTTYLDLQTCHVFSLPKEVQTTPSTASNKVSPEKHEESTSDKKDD
Experimental: as §1, §6, §7, §8, §9, §10, §4, §5

| SMILES | percentage inhibition, product 16:0/20:4 Alkyl-PC, mLPCAT2 (mLPCAT2 [1]) | IC50 (hLPCAT1) | percentage inhibition, product PAF, hLPCAT1 (hLPCAT1) | percentage inhibition, product PAF, mLPCAT2 (mLPCAT2 [2]) | IC50 (hLPCAT2) | percentage inhibition, product 16:0/20:4 Alkyl-PC, hLPCAT2 (hLPCAT2) |
| --- | --- | --- | --- | --- | --- | --- |
| CC(C)OC(=O)c1ccc(N2C(=O)C(Cl)=C(Nc3ccccc3O)C2=O)cc1 [TSI-07] | 82.4 ± 5.7 percentage | > 20000 nM | 11.9 ± 13.1 percentage | 84.1 ± 6.4 percentage | 13300 nM | 83.1 ± 4.3 percentage |
| CC(C)OC(=O)c1ccc(N2C(=O)C(Cl)=C(Cl)C2=O)cc1 [TSI-01, propan-2-yl 4-(3,4-dichloro-2,5-dioxopyrrol-1-yl)benzoate] | 95.5 ± 1.8 percentage | 3020 nM | 75.9 ± 5.2 percentage | 99.2 ± 0.2 percentage | 1270 nM | 95.2 ± 1.3 percentage |

Other lines, results leading:

| percentage inhibition, product 16:0/20:4 Alkyl-PC, mLPCAT2 (mLPCAT2 [1]) | IC50 (hLPCAT1) | percentage inhibition, product PAF, hLPCAT1 (hLPCAT1) | percentage inhibition, product PAF, mLPCAT2 (mLPCAT2 [2]) | IC50 (hLPCAT2) | percentage inhibition, product 16:0/20:4 Alkyl-PC, hLPCAT2 (hLPCAT2) | SMILES |
| --- | --- | --- | --- | --- | --- | --- |
|  | 8000 nM |  |  | 1160 nM |  | O=C1C(Cl)=C(N2CCOCC2)C(=O)N1c1ccc(Oc2ccccc2)cc1 [TSI-02, 3-chloro-4-morpholin-4-yl-1-(4-phenoxyphenyl)pyrrole-2,5-dione] |
| 86.7 ± 5.2 percentage | 2420 nM | 76.1 ± 4.4 percentage | 99.1 ± 0.2 percentage | 300 nM | 85.4 ± 3.0 percentage | CCCOC(=O)c1ccc(N2C(=O)C(Cl)=C(Cl)C2=O)cc1 [TSI-10] |
| 83.0 ± 3.5 percentage | 1010 nM | 78.6 ± 2.8 percentage | 98.9 ± 0.3 percentage | 330 nM | 80.4 ± 2.7 percentage | CCCCOC(=O)c1ccc(N2C(=O)C(Cl)=C(Cl)C2=O)cc1 [TSI-11, butyl 4-(3,4-dichloro-2,5-dioxopyrrol-1-yl)benzoate] |
